Reference: ChEMBL document CHEMBL1201862, “PubChem BioAssay data set” (2004)
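Where inhibition never reached the appropriate level, the endpoint shown equals the highest concentration tested. Otherwise, values were interpolated linearly from a five-concentration, 48-hour dose response in 96-well plates. GI50 is the concentration that inhibits growth by half.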 Active and inactive are the calls of the source. Rule as the data show it: active = GI50 up to about 1.1 µM and inactive = higher.

Assays:
Experiment in all cases: inhibition of tumour cell growth, NCI panel, 48 h
[1] = test system: A498
[2] = test system: SN12C
[3] = test system: SF-268
[4] = test system: A549
[5] = test system: SF-295
[6] = test system: ACHN
[7] = test system: HCT-116
[8] = test system: SK-MEL-5
[9] = test system: IGROV-1
[10] = test system: COLO 205
[11] = test system: LXFL 529
[12] = test system: HOP-62
[13] = test system: SF-539
[14] = test system: SK-OV-3
[15] = test system: M14
[16] = test system: OVCAR-3
[17] = test system: MOLT-4
[18] = test system: NCI-H226

Measured: GI50

Clc1cccc(C2SCc3nc4ccccc4n32)c1Cl (stereo not drawn)
inactive: [1] 15.2 µM | [2] 16.1 µM | [3] 21 µM | [4] 17.9 µM | [5] 16.5 µM | [6] 20.8 µM | [7] 18.6 µM | [8] 14.1 µM | [9] 16.6 µM | [10] 19.8 µM | [11] 15.9 µM | [12] 17.4 µM | [13] 17.2 µM | [14] 20.1 µM | [15] 16.6 µM | [16] 19 µM | [17] 11.1 µM

N=C1N(c2ccccc2)C(=O)C23CCCC2C13N1CCOCC1 (stereo not drawn)
inactive: [2] > 100 µM | [3] > 100 µM | [4] > 100 µM | [18] > 100 µM | [5] > 100 µM | [6] > 100 µM | [7] > 100 µM | [8] > 100 µM | [9] > 100 µM | [10] > 100 µM | [11] > 100 µM | [12] > 100 µM | [13] > 100 µM | [14] > 100 µM | [15] > 100 µM | [16] > 100 µM | [17] > 100 µM

CC1(C)C(=O)CCC(=O)C(C)(C)C2=CC=C(O2)C(C)(C)C(=O)CCC(=O)C(C)(C)C2=CC=C1O2
inactive: [1] > 100 µM | [3] > 100 µM | [4] > 100 µM | [18] > 100 µM | [5] > 100 µM | [6] > 100 µM | [7] > 100 µM | [9] > 100 µM | [10] > 100 µM | [11] > 100 µM | [12] > 100 µM | [14] > 100 µM | [16] > 100 µM | [17] > 100 µM

Cc1ccc(/C=C/C(=O)c2ccc(Cl)c(Cl)c2)cc1
inactive: [1] > 100 µM | [2] > 100 µM | [3] > 100 µM | [4] > 100 µM | [18] > 100 µM | [5] > 100 µM | [6] > 100 µM | [7] > 100 µM | [8] > 100 µM | [9] > 100 µM | [10] > 100 µM | [11] > 100 µM | [12] > 100 µM | [14] > 10 µM | [15] > 100 µM | [16] > 100 µM | [17] > 100 µM

O=C1CCNC(=O)NC1
inactive: [1] > 100 µM | [2] > 100 µM | [3] > 100 µM | [4] > 100 µM | [18] > 100 µM | [5] > 100 µM | [6] > 100 µM | [7] > 100 µM | [8] > 100 µM | [9] > 100 µM | [10] > 100 µM | [11] > 100 µM | [12] > 100 µM | [14] > 100 µM | [15] > 100 µM | [16] > 100 µM | [17] 23.1 µM

Clc1ccc(C2N3CCCCC3[C@@H]3c4[nH]c5ccccc5c4CCN23)cc1 (stereo partly drawn)
inactive: [1] 94.4 µM | [2] 24.1 µM | [3] 57.9 µM | [4] 79.6 µM | [5] 67.1 µM | [6] 39.2 µM | [7] 30.2 µM | [8] 59 µM | [9] > 100 µM | [11] 38.1 µM | [12] > 100 µM | [13] 44.1 µM | [14] > 100 µM | [15] 38.3 µM | [16] 50.5 µM | [17] 64.7 µM

Cc1ccccc1NC(=O)CC1C(=O)Nc2ccccc2[S+]1[O-] (stereo not drawn)
inactive: [1] > 100 µM | [2] 74 µM | [3] > 100 µM | [4] > 100 µM | [18] > 100 µM | [5] > 100 µM | [6] 95.3 µM | [7] > 100 µM | [8] > 100 µM | [9] 88.1 µM | [11] > 100 µM | [13] 36.1 µM | [15] > 100 µM | [16] > 100 µM | [17] > 100 µM
